From patent publication US5843750A, “Sorbitol kinase, process for producing the same, and substantially pure microorganism” (priority 1994, dated 1998)
Read-outs that look alike come from different tables or passages of the source.

Key:
[1] = test system: sorbitol-6-phosphate dehydrogenase; type: biochemical, Comamonas sp. SY-77-1; conditions: for Relative activity (5): substrate specificity of sorbitol-6-phosphate dehydrogenase, substance used as substrate; for Relateive activity: 10 min; for Effect on sorbitol-6-phosphate dehydrogenase activity (in words): 1 mM metal ions
Experimental: Reaction mixture 1 ml consisting of 0.2M Tris-HCl buffer solution (pH 8.0) 0.25 ml, 0.1M sorbitol-6-phosphate 0.2 ml, 10 mM NAD 0.1 ml, 100 U/ml diaphorase (Asahi Chemical Industry Co.) 0.05 ml, 0.25% NTB (nitrotetrazolium blue) 0.1 ml, 10% Triton X-100 0.01 ml and distilled water 0.29 ml was pre-heated at 37° C. for 1 minute. 0.02 ml of enzyme solution was added thereto and incubated for 10 minutes.
0.1N HCl 2 ml was added to stop the reaction, and within 5 minutes optical absorption of the reaction mixture was measured using pass length 1.0 cm cell at 550 nm (As). Optical density of the blank solution of distilled water 0.02 ml in place of the enzyme solution was measured by the same procedure (Ab). Enzyme activity was measured by the difference (As-Ab) between the optical density of the enzyme solution (As) and that of the blank (Ab). A unit of enzyme is defined as an enzyme amount which produces 1μ mole of reduced NAD at 37° C. for 1 minute. Equation is as follows.
Enzyme activity (U/ml)=(As-Ab)×0.795×enzyme dilution rate

[2] = biological target: T1, sorbitol kinase (Enterobacter ludwigii, UniProt A0AAX3LD49); type: biochemical, Erwinia sp. SK-472-20; parameters: SK-472-20; conditions: for Relative activity as phosphate donor: activity for ATP (final concentration 2 mM) set as 100%
T1 sequence (A0AAX3LD49 entry or part of it): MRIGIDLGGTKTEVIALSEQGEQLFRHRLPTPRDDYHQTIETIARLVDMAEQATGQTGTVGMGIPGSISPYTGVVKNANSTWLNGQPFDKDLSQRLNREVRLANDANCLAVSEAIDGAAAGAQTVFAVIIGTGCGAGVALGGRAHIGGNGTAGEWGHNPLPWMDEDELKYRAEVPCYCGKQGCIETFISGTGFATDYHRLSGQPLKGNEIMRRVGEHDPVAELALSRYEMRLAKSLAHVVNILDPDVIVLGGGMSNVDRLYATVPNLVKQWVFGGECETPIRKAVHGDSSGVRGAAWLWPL
Experimental: One milliliter of a reaction mixture consisting of 0.2M Tris-HCl buffer solution (pH 8.5) 0.2 ml, 0.1M ATP 0.02 ml, 0.1M MgCl2 0.02 ml, 100 U/ml sorbitol-6-phosphate dehydrogenase (refer to referential example) 0.05 ml, 10 mM NAD 0.1 ml, 100 U/ml diaphorase (Asahi Chemical Ind. Co.) 0.05 ml, 0.25% NTB 0.1 ml, 1M sorbitol 0.1 ml, 10% Triton X-100 0.01 ml and distilled water 0.3 ml was pre-heated at 37° C. for 1 minute, and the enzyme solution 20 μl was added thereto, then the mixture was incubated for 10 minutes.
Reaction was terminated by adding 0.1N HCl 2 ml and optical density of the mixture was measured using 1.0 cm cell at 550 nm within 5 minutes (As). Also optical density of distilled water 20 μl in place of the enzyme solution was measured in the same manner as above as a blank test (Ab). Enzymatic activity is determined by difference in the absorption between the optical density of the enzyme solution (As) and the blank test (Ab), i.e. (As-Ab). A unit of enzyme activity is defined as an amount of enzyme which generate 1 μm of reduced NAD in one minutes at 37° C. and calculated by the following equation.
Enzyme activity (U/ml)=(As-AB)×0.795×dilution rate of enzyme

[3] = biological target: T1, sorbitol kinase; type: biochemical, Erwinia sp. SK-472-20 gene expressed in E.coli; parameters: no tag mentioned; conditions: for Relative activity on substrate: sorbitol set at 100%
Experimental: A reaction mixture 1 ml consisting of 100 mM Tris-HCl buffer solution (pH 8.5), 2 mM ATP, 2 mM MgCl2, 5 unit/ml sorbitol-6-phosphatedehydrogenase (refer to referential example 3), 1 mM NAD, 5 units/ml diaphorase (Asahi Chem. Ind. Co.), 0.025% nitrotetrazolium blue, 100 mMD-sorbitol and 0.1% Triton X-100 was incubated with the aliqluot diluted sonicated microbial cells 20 μl at 37° C. for 10 minutes. Reaction was stopped by adding 0.1N HCl 2.0 ml and the optical absorption at 550 nm was measured for determination of sorbitol kinase activity. For control study, sonicated E.coli DH1 harboring pUC118 was treated by the same way as above to determine activity of sorbitol kinase. […] Accordingly, the transformant having sorbitol kinase activity was confirmed. […] SK-472-20, consequently the physico-chemical properties of expressed protein was confirmed.

[4] = sorbitol-6-phosphate dehydrogenase
[5] = substrate specificity of sorbitol kinase, substance used as substrate
[6] = enzyme produced by transformant
[7] = 1 mM metal ion on sorbitol-6-phosphate dehydrogenase, None = 100
[8] = metal ion or chemical modifier 2 mM in the presence of 2 mM magnesium ion, None = 100

NC(=S)c1ccc[n+]([C@@H]2O[C@H](COP(=O)([O-])OP(=O)(O)OC[C@H]3O[C@@H](n4cnc5c(N)ncnc54)[C@H](O)[C@@H]3O)[C@@H](O)[C@H]2O)c1 [thio NAD]
Km [1, 4]: 140 ± 50 µM

O=C(O)CN(CCN(CC(=O)O)CC(=O)O)CC(=O)O [EDTA]
Effect on sorbitol kinase activity (in words) [2]: inhibited | Effect on enzyme activity (in words) [3]: inhibited

Glucose
Relative activity (%) [2, 5]: 0% | Relative activity (5) [1]: 0 | Relative activity on substrate [3, 6]: 0%

[Cl-].[Cl-].[Mg+2] [MgCl2]
Relateive activity [1, 7]: 100

OC[C@@H](O)[C@@H](O)[C@H](O)[C@H](O)CO [Mannitol]
Relative activity (5) [1]: 0

OC[C@H]1O[C@H](O[C@H]2[C@H](O)[C@@H](O)[C@H](O)O[C@@H]2CO)[C@H](O)[C@@H](O)[C@@H]1O [Maltose]
Relative activity on substrate [3, 6]: 0%

O=P(O)(O)OC[C@H]1OC(O)[C@H](O)[C@@H](O)[C@@H]1O (some centres unmarked) [Glucose-6-phosphate]
Relative activity (5) [1]: 0

[Cl-].[Cl-].[Co+2] [CoCl2]
Effect on sorbitol kinase activity (in words) ([2]; 2 mM, Table 2): inhibited | Relative activity (%) [2, 8]: 17.3% | Relateive activity [1, 7]: 100 | Effect on enzyme activity (in words) [3, 6]: inhibited

[N-]=[N+]=[N-].[Na+] [NaN3]
Relative activity (%) [2, 8]: 123%

O=c1ccn([C@@H]2O[C@H](COP(=O)(O)OP(=O)(O)OP(=O)(O)O)[C@@H](O)[C@H]2O)c(=O)[nH]1 [UTP]
Relative activity as phosphate donor [2]: 3.6%

OC[C@@H](O)[C@@H](O)[C@H](O)[C@@H](O)CO [Sorbitol]
Relative activity on substrate [3, 6]: 100%

[Cl-].[Cl-].[Zn+2] [ZnCl2]
Relateive activity [1, 7]: 6

O=c1[nH]cnc2c1ncn2[C@@H]1O[C@H](COP(=O)(O)OP(=O)(O)OP(=O)(O)O)[C@@H](O)[C@H]1O [ITP]
Relative activity as phosphate donor [2]: 40.5%

Nc1nc2c(ncn2[C@@H]2O[C@H](COP(=O)(O)OP(=O)(O)OP(=O)(O)O)[C@@H](O)[C@H]2O)c(=O)[nH]1 [GTP]
Relative activity as phosphate donor [2]: 11.8%

Galactose
Relative activity (%) [2, 5]: 0% | Relative activity (5) [1]: 0 | Relative activity on substrate [3, 6]: 0%

[Cl][Ni][Cl] [NiCl2]
Effect on sorbitol kinase activity (in words) ([2]; 2 mM, Table 2): inhibited | Relative activity (%) [2, 8]: 14.5% | Relateive activity [1, 7]: 100 | Effect on enzyme activity (in words) [3, 6]: inhibited

[Cl-].[Cs+] [CsCl]
Relative activity (%) [2, 8]: 85% | Relateive activity [1, 7]: 100

[Cl-].[Na+] [NaCl]
Relative activity (%) [2]: 112% | Relateive activity ([1]; sorbitol-6-phosphate dehydrogenase, 1000 µM): 100

[Ba+2].[Cl-].[Cl-] [BaCl2]
Relateive activity [1, 7]: 32

OC[C@H]1O[C@@](CO)(O[C@H]2O[C@H](CO)[C@@H](O)[C@H](O)[C@H]2O)[C@@H](O)[C@@H]1O [Saccharose]
Relative activity (5) [1]: 0 | Relative activity on substrate [3, 6]: 0%

Nc1ncnc2c1ncn2[C@@H]1O[C@H](COP(=O)(O)OP(=O)(O)OP(=O)(O)O)[C@@H](O)[C@H]1O [ATP]
Relative activity as phosphate donor [2]: 100%

[Cl][Pb][Cl] [PbCl2]
Relateive activity [1, 7]: 2 | Effect on sorbitol-6-phosphate dehydrogenase activity (in words) [1]: Strong inhibition

O=P(O)(O)OC[C@@H](O)[C@@H](O)[C@H](O)[C@@H](O)CO [sorbitol-6-phosphate]
Km [1, 4]: 2000 ± 500 µM | Relative activity (5) [1]: 100

O=C(CO)[C@@H](O)[C@H](O)[C@H](O)CO [Fructose]
Relative activity (5) [1]: 0 | Relative activity on substrate [3, 6]: 0%

C=C(OP(=O)(O)O)C(=O)O [phosphoenolpyruvate]
Utilization as phosphate donor ([2]; phosphoenolpyruvate used in place of ATP in the enzyme assay): No substantial utilization | Utilization as phosphate donor [3, 6]: substantially not

[Cl-].[Li+] [LiCl]
Relative activity (%) [2, 8]: 74.3% | Relateive activity [1, 7]: 100

OC[C@H]1O[C@H](O[C@H]2O[C@H](CO)[C@@H](O)[C@H](O)[C@H]2O)[C@H](O)[C@@H](O)[C@@H]1O [Treharose]
Relative activity (5) [1]: 0

[Cl][Mn][Cl] [MnCl2]
Relateive activity [1, 7]: 40

[Cl-].[K+] [KCl]
Effect on sorbitol kinase activity (in words) ([2]; 2 mM, Table 2): activated | Relative activity (%) [2, 8]: 180% | Relateive activity [1, 7]: 100

NC(=O)c1ccc[n+]([C@@H]2O[C@H](COP(=O)([O-])OP(=O)(O)OC[C@H]3O[C@@H](n4cnc5c(N)ncnc54)[C@H](O)[C@@H]3O)[C@@H](O)[C@H]2O)c1 [NAD]
Km [1, 4]: 130 ± 50 µM

[Cl][Cu][Cl] [CuCl2]
Effect on sorbitol kinase activity (in words) ([2]; 2 mM, Table 2): inhibited | Relative activity (%) [2, 8]: 0% | Relateive activity [1, 7]: 0 | Effect on sorbitol-6-phosphate dehydrogenase activity (in words) [1]: Strong inhibition | Effect on enzyme activity (in words) [3, 6]: inhibited

O=C(COP(=O)(O)O)[C@@H](O)[C@H](O)[C@H](O)COP(=O)(O)O [fructose-1,6-diphosphate]
Relative activity (5) [1]: 0

O=P(O)(O)OC[C@H]1OC(O)[C@H](O)[C@@H](O)[C@H]1O (some centres unmarked) [galactose-6-phosphate]
Relative activity (5) [1]: 0

2-deoxyglucose
Relative activity (%) [2, 5]: 0%

O[C@H]1[C@H](O)[C@@H](O)[C@H](O)[C@@H](O)[C@H]1O [Inositol]
Relative activity on substrate [3, 6]: 0%

O=P(O)(O)OC1O[C@H](CO)[C@@H](O)[C@H](O)[C@H]1O (some centres unmarked) [glucose-1-phosphate]
Relative activity (5) [1]: 0

Mannose
Relative activity (%) [2, 5]: 0% | Relative activity (5) [1]: 0 | Relative activity on substrate [3, 6]: 0%

[Ca+2].[Cl-].[Cl-] [CaCl2]
Relative activity (%) [2, 8]: 44.6% | Relateive activity [1, 7]: 100 | Effect on enzyme activity (in words) [3, 6]: activated

Xylose
Relative activity (%) [2, 5]: 0%

O=P(O)(O)OC1O[C@H](CO)[C@H](O)[C@H](O)[C@H]1O (some centres unmarked) [Galactose-1-phosphate]
Relative activity (5) [1]: 0

OC[C@H]1O[C@@H](O[C@H]2[C@H](O)[C@@H](O)C(O)O[C@@H]2CO)[C@H](O)[C@@H](O)[C@H]1O (some centres unmarked) [Lactose]
Relative activity (5) [1]: 0 | Relative activity on substrate [3, 6]: 0%
